Experimental findings from patent US7709495B2, “Methods and reagents for the treatment of inflammatory disorders” (CombinatoRx, Incorporated, priority 2003, dated 2010) are described below.

Common to all, as to assay type: cell-based
Assay [1] has as its system IL-1 secretion. The assay is described as follows: IL-1 secretion assay (ELISA), LPS stimulated white blood cells. The settings on record: Homo sapiens, PBMC. On the procedure: The compound dilution matrix was assayed for the suppression of phorbol 12-myristate 13 acetate/ionomycin stimulated IL-1 and TNFα secretion as well as the suppression of lipopolysaccharide-stimulated TNFα secretion from human white blood cells using the ELISA method, as described below.
(§1) A stock solution containing prednisolone (0.36 mg/ml) was prepared in DMSO. A stock solution containing ibudilast (1.84 mg/ml) was prepared in DMSO. Master plates were prepared for dilutions of the stock solutions above.
(§2) The final single agent plates were generated by transferring 1 μL of stock solution from the specific master plate to separate dilution plates containing 99 μL of media (RPMI; Gibco BRL, #11875-085), 10% fetal bovine serum (Gibco BRL, #25140-097), 2% penicillin/streptomycin (Gibco BRL, #15140-122)) using the Packard Mini-Trak liquid handler. The dilution plates were then mixed and a 10 μL aliquot transferred from each dilution plate to the final assay plate (polystyrene 384-well plate (NalgeNunc)), which had been pre-filled with 30 μL/well RPMI media containing 33 ng/mL phorbol 12-myristate 13-acetate (Sigma, P-1585) and 2.475 ng/mL ionomycin (Sigma, I-0634) or alternatively for the LPS stimulated assay RPMI media containing 2 μg/ml lipopolysaccharide (Sigma, L-4130).
The effects of test compound combinations on IL-1 secretion were assayed in white blood cells from human buffy coat stimulated with LPS, as follows. Human white blood cells from buffy coat were diluted 1:50 in media (RPMI; Gibco BRL, #11875-085), 10% fetal bovine serum (Gibco BRL, #25140-097), 2% penicillin/streptomycin (Gibco BRL, #15140-122)) and 50 μL of the diluted white blood cells was placed in each well of the final assay plate created in the above section. After 16-18 hours of incubation at 37° C. in a humidified incubator, the plate was centrifuged and the supernatant was transferred to a white opaque 384-well plate (NalgeNunc, MAXISORB) coated with an anti-IL-1 antibody (R&D Systems, MAB601). After a two-hour incubation, the plate was washed (Tecan Powerwasher 384) with PBS containing 0.1% Tween 20 and incubated for an additional one hour with a biotin labeled anti-IL-1 antibody (R&D Systems, BAF201) and horse radish peroxidase coupled to streptavidin (PharMingen, #554066). The plate was then washed again with 0.1% Tween 20/PBS, and an HRP-luminescent substrate was added to each well. Light intensity was then measured using a plate luminometer.
(§3) The percent inhibition (% I) for each well was calculated using the following formula: % I=[(avg. untreated wells−treated well)/(avg. untreated wells)]×100
(§4) The average untreated well value (avg. untreated wells) is the arithmetic mean of 30 wells from the same assay plate treated with vehicle alone.
IL-1 secretion was measured by ELISA as described above after stimulation with lipopolysaccharide. The effects of varying concentrations of ibudilast, prednisolone and a combination of ibudilast and prednisolone were compared to control wells.

Assay [2] concerns white blood cells from human buffy coat. The experiment in a line: alamarBlue assay (toxicity/cell viability), PMA/ionomycin stimulated. The settings on record: PBMC, read-out: % Inhibition of Proliferation of PBMC PI. The procedure:
as §1, §2, §3, §4
(§5) The toxicity of the test combination were assessed using alamarBlue® assayed in white blood cells from human buffy coat stimulated with LPS or phorbol 12-myistate 13-acetate and Ionomycin, as follows. Human white blood cells from buffy coat were diluted 1:50 in media (RPMI; Gibco BRL, #11875-085), 10% fetal bovine serum (Gibco BRL, #25140-097), 2% penicillin/streptomycin (Gibco BRL, #15140-122)) and 50 μL of the diluted white blood cells was placed in each well of the final assay plate created in the above section. After 16-18 hours of incubation at 37° C. with 5% CO2 in a humidified incubator, 5 μl of alamarBlue® (BioSource Intl. Inc., DAL 1100) was added to all of the wells. After 20-24 hours of incubation in 37° C. in a humidified incubator, fluorescence was then measured using a plate fluorometer.
Cell viability was measured using the alamarBlue® assay described above after stimulation with phorbol 12-myristate 13-acetate and ionomycin. The effects of varying concentrations of ibudilast, prednisolone and a combination of ibudilast and prednisolone were compared to control wells.
(In general: Resazurin is reduced to fluorescent resorufin, in cell work by metabolically active cells.)

Assay [3] shares this test system. The experiment in a line: alamarBlue assay (toxicity/cell viability), lipopolysaccharide stimulated. The note with it: PBMC, read-out: % Inhibition of Proliferation of PBMC LPS. The procedure:
as §1, §2, §3, §4, §5
Cell viability was measured the alamarBlue® asay described above after stimulation with lipopolysaccharide. The effects of varying concentrations of ibudilast, prednisolone and a combination of ibudilast and prednisolone were compared to control wells. These wells were stimulated with lipopolysaccharide, but not receive ibudilast or prednisolone.

For the compound `CC(C)C(=O)c1c(C(C)C)nn2ccccc12` [Ibudilast, ibudilast], the inhibition at 0.062 µM is 19% in assay [1] (ibudilast 0.062 μM alone), -1.5% in assay [2] (ibudilast 0.062 μM alone) and -4.6% in assay [3] (ibudilast 0.062 μM alone). The inhibition at 0.12 µM in assay [1] (ibudilast 0.12 μM alone) is -1.6%; in assay [2] (ibudilast 0.12 μM alone), -5.1%; in assay [3] (ibudilast 0.12 μM alone), -1.5%. Also, the inhibition at 0.25 µM is 20% in assay [1] (ibudilast 0.25 μM alone), 0.84% in assay [2] (ibudilast 0.25 μM alone) and -1.8% in assay [3] (ibudilast 0.25 μM alone). For the same compound, the results for the inhibition at 0.5 µM in assay [1] (ibudilast 0.5 μM alone), in assay [2] (ibudilast 0.5 μM alone) and in assay [3] (ibudilast 0.5 μM alone) were 18%, -4% and -3.8%, respectively. The results for the inhibition at 1 µM in assay [1] (ibudilast 1 μM alone), in assay [2] (ibudilast 1 μM alone) and in assay [3] (ibudilast 1 μM alone) were 41%, -1.9% and -2.9%, respectively. Further, the values for the inhibition at 2 µM in assay [1] (ibudilast 2 μM alone), in assay [2] (ibudilast 2 μM alone) and in assay [3] (ibudilast 2 μM alone) were 42%, 2.7% and 2.6%, respectively. Besides, the results for the inhibition at 4 µM in assay [1] (ibudilast 4 μM alone), in assay [2] (ibudilast 4 μM alone) and in assay [3] (ibudilast 4 μM alone) were 50%, 3.3% and -2.4%, respectively. Further, the values for the inhibition at 8 µM in assay [1] (ibudilast 8 μM alone), in assay [2] (ibudilast 8 μM alone) and in assay [3] (ibudilast 8 μM alone) were 61%, 6.9% and 0.069%, respectively.
For `C[C@]12C=CC(=O)C=C1CC[C@@H]1[C@@H]2[C@@H](O)C[C@@]2(C)[C@H]1CC[C@]2(O)C(=O)CO` [Prednisolone, prednisolone], the results for the inhibition at 0.0078 µM in assay [1] (prednisolone 0.0078 μM alone), in assay [2] (prednisolone 0.0078 μM alone) and in assay [3] (prednisolone 0.0078 μM alone) were 18%, 4% and -1.7%, respectively. Besides, the values for the inhibition at 0.016 µM in assay [1] (prednisolone 0.016 μM alone), in assay [2] (prednisolone 0.016 μM alone) and in assay [3] (prednisolone 0.016 μM alone) were 25%, 1% and -1.5%, respectively. In addition, the inhibition at 0.031 µM in assay [1] (prednisolone 0.031 μM alone) is 50%; in assay [2] (prednisolone 0.031 μM alone), 1.7%; in assay [3] (prednisolone 0.031 μM alone), 0.64%. Further, the inhibition at 0.062 µM in assay [1] (prednisolone 0.062 μM alone) was 69%; in assay [2] (prednisolone 0.062 μM alone), -1.7%; in assay [3] (prednisolone 0.062 μM alone), -1.2%. Further, the inhibition at 0.12 µM was 70% in assay [1] (prednisolone 0.12 μM alone), 3.2% in assay [2] (prednisolone 0.12 μM alone) and -1.8% in assay [3] (prednisolone 0.12 μM alone). The inhibition at 0.25 µM was 74% in assay [1] (prednisolone 0.25 μM alone), 4.6% in assay [2] (prednisolone 0.25 μM alone) and -1.3% in assay [3] (prednisolone 0.25 μM alone). The inhibition at 0.5 µM in assay [1] (prednisolone 0.5 μM alone) is 77%; in assay [2] (prednisolone 0.5 μM alone), 0.19%; in assay [3] (prednisolone 0.5 μM alone) it was -3.3%. For the same compound, the results for the inhibition at 1 µM in assay [1] (prednisolone 1 μM alone), in assay [2] (prednisolone 1 μM alone) and in assay [3] (prednisolone 1 μM alone) were 84%, 3.1% and -3.8%, respectively.
